The values that follow are results of earlier work, collected in paper PMC4109836, “Analysis of the co-operative interaction between the allosterically regulated proteins GK and GKRP using tryptophan fluorescence” (Biochemical Journal, 2014).

One may read the pKd as the Kd on a negative log10 scale, so that one unit is a factor of ten. As usually defined, the Km is the substrate concentration at which the rate is half of its maximum.

The target in data set [1] is T1, GK-WT (Homo sapiens, UniProt P35557).
T1 construct: GST (cleaved yes); made in house; host or cells: Escherichia coli
T1 sequence (P35557 1-465): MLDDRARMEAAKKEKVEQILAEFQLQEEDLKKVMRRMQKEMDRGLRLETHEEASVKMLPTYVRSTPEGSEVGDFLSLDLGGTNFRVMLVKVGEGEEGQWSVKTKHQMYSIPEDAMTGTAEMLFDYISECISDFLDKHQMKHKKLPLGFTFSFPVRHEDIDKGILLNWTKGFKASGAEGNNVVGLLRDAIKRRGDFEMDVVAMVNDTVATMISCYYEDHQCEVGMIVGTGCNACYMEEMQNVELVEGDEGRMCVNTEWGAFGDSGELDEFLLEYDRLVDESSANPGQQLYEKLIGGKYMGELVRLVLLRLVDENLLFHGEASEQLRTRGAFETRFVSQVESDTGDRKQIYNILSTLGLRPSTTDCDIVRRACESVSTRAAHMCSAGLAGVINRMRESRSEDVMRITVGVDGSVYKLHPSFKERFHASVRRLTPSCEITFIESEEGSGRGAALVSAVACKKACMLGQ
Further details: method as in ref 18 (a number printed in a supplementary file, which may have a reference list of its own: not looked up in the article's list). As to conditions: read-out: Kd for MH, cited from earlier work.

For the next data set, the target named is T2, GK-W99R/W167F/W257F (Homo sapiens, UniProt P35557, W167F/W257F/W99R).
T2 construct: GST (cleaved yes); made in house; host or cells: Escherichia coli
T2 sequence (P35557 1-465 W99R/W167F/W257F): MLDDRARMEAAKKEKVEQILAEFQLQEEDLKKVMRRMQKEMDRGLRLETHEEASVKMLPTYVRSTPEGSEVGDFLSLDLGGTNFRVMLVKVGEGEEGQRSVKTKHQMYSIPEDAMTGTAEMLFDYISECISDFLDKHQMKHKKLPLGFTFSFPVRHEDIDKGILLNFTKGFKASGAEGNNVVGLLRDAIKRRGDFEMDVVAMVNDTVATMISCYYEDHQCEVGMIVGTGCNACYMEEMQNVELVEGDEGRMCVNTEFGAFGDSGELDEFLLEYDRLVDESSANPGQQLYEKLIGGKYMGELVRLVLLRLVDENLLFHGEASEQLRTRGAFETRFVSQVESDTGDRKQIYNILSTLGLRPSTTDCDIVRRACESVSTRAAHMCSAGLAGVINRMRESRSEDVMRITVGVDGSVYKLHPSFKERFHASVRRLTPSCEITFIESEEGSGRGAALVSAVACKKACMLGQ
More on the design: method as in ref 4 (a number printed in a supplementary file, which may have a reference list of its own: not looked up in the article's list). As to conditions: read-out: ATP Km; cited from earlier work.

Data set [2] has as its target T1, GK-WT. More on the design: method as in ref 4 (a number printed in a supplementary file, which may have a reference list of its own: not looked up in the article's list). As to conditions: read-out: ATP Km; cited from earlier work.

pKd: −log10 of the molar value. Like-named read-outs stand apart in the source and are kept apart here.

As for `O=C(CO)[C@@H](O)[C@@H](O)[C@H](O)[C@H](O)CO` [MH, D-mannoheptulose], the pKd on GK-WT [1] (in the presence of GKA (20 μM)) is 3.00; on GK-WT [1] (without GKA), 1.77.
Regarding `Nc1ncnc2c1ncn2[C@@H]1O[C@H](COP(=O)(O)OP(=O)(O)OP(=O)(O)O)[C@@H](O)[C@H]1O` [ATP], the Km on GK-W99R/W167F/W257F is 1.96 mM; at GK-WT [2], 490 µM.
